According to article PMC10970734, “Identification of an Intravenous Injectable NK1 Receptor Antagonist for Use in Traumatic Brain Injury” (International Journal of Molecular Sciences, 2024):
Converted amounts (≈) assume the structure as drawn. Read-outs that look alike come from different tables or passages of the source.

Experiments:
Aqueous solubility = type: physicochemical; conditions: water
central NK1Rs = biological target: T1, central NK1Rs (Meriones unguiculatus, UniProt Q5DUB1); assay: Gerbil foot-tapping response induced by icv GR73632; type: in vivo, Mongolian Gerbils
T1 construct: antagonize central NK1Rs in vivo; from tissue; host or cells: brain of living Mongolian gerbils (in vivo)
Description: The ability of EUC-001 to antagonize central NK1Rs in vivo was examined using the gerbil foot-tapping response. The hind-foot-tapping response is a species-specific, CNS-mediated reaction that occurs in response to fear-evoking situations or aversive stimuli. The same, stereotyped response can be induced by the intracerebroventricular (icv) injection of a selective NK1 receptor agonist, such as GR73632 [59]. In turn, this NK1R-mediated response can be inhibited by centrally acting NK1R antagonists, as well as other anxiolytic agents. Animals were pretreated with a range of concentrations of EUC-001 2 h prior to the icv administration of the NK1R agonist, GR73632.
Female Mongolian Gerbils weighing 30–60 g were administered drug vehicle or a predetermined dose of EUC-001 either orally (po) at a volume of 5 mL/kg or intravenously (iv) at a volume of 1 mL/kg. […] Following recovery from the anesthesia (recovery of the righting reflex), a 5 min observation period was allocated per study and the amount of time gerbils spent tapping their hind paws was measured.

rodent model of TBI [1] = assay: Motor function after TBI, rotarod test; type: in vivo, Sprague Dawley rats; conditions: rat TBI, 10 mg/kg 30 min post-injury, 10 days
Description: The maximum duration of the task was 120 s.
Injury was induced in halothane-anesthetized (ProVet) male Sprague Dawley rats (400 ± 20 g) using acceleration-induced impact TBI [29, 93]. This model involves impacting a 10 mm diameter, 3 mm thick stainless steel disc fixed centrally to the exposed skull between the lambda and bregma with an accelerating impactor. The impactor was a 450 g brass weight dropped from a height of 2 m. […] All animals were fed and watered ad libitum before the induction of injury. During both surgery and the immediate recovery phase, rat rectal temperature was maintained using a thermostatically controlled heating pad. Immediately after injury, animals were manually ventilated until stable respiration was restored, usually in <5 min. After injury, all wounds were sutured. Blood pressure was monitored, both before and after injury, using a femoral arterial line.
Motor and cognitive outcomes in animals (n = 6 per group) were assessed using the rotarod and Barnes maze, respectively, as described in detail elsewhere [64]. The rotarod consists of a motorized rotating assembly of 18 rods (1 mm in diameter) upon which the animals were placed. The rotational speed of the device was increased from 0 to 30 r.p.m. and the duration (in seconds) when the animals either completed the task, fell from the rods, or gripped the rods and spun for two consecutive revolutions rather than walking actively was recorded as the rotarod score. […] After activating the bright lights and aversive auditory stimulus, the latency (in seconds) for the animal to locate and enter the escape tunnel was recorded. All animals were pretrained on both functional outcome tests twice per day over 5 days before injury to establish a normal, uninjured baseline.

rodent model of TBI [2] = assay: Cerebral oedema after TBI, wet weight-dry weight method; type: in vivo, Sprague Dawley rats; conditions: rat TBI, 10 mg/kg 30 min post-injury, tissues 6 h post-injury
Protocol: The BBB dysfunction that follows acute CNS injuries can contribute to significant complications, such as cerebral oedema and raised intracranial pressure (ICP). The development of cerebral oedema was assessed using the wet weight–dry weight method, with tissues collected 6 h post-injury.
Injury was induced in halothane-anesthetized (ProVet) male Sprague Dawley rats (400 ± 20 g) using acceleration-induced impact TBI [29, 93]. This model involves impacting a 10 mm diameter, 3 mm thick stainless steel disc fixed centrally to the exposed skull between the lambda and bregma with an accelerating impactor. The impactor was a 450 g brass weight dropped from a height of 2 m. Earlier studies have shown that the impact acceleration injury produces diffuse axonal injury, oedema, BBB opening, Mg^2+ decline, and moderate-to-severe neurologic deficits. All animals were fed and watered ad libitum before the induction of injury. During both surgery and the immediate recovery phase, rat rectal temperature was maintained using a thermostatically controlled heating pad. […] Blood pressure was monitored, both before and after injury, using a femoral arterial line. […]
The amount of oedema development was calculated using the wet weight–dry weight method. […] Edema in each brain sample was calculated using the wet–dry method formula:%Water = (Wet Weight − Dry Weight)/Wet Weight × 100

rodent model of TBI [3] = assay: Cognitive function after TBI, Barnes maze; type: in vivo, Sprague Dawley rats; conditions: rat TBI, 10 mg/kg 30 min post-injury, 10 days
Protocol: Cognitive outcome was assessed using the Barnes maze in order to reduce the potential confounding effects that may be associated with tests such as the Morris water maze. In the Barnes maze, animals were placed under a cover in the centre of an elevated 1.2 m diameter board containing 19 holes around the periphery. One hole contained the entrance to a darkened escape tunnel that was not visible from the surface, relying on the animal to use surrounding visual cues to locate the tunnel. The time, in seconds, for the animal to locate and enter the escape tunnel was recorded. Following pre-training, the effect of injury, and post-injury treatment, on the time taken for the animal to locate the tunnel was measured (Figure 7). […]
Injury was induced in halothane-anesthetized (ProVet) male Sprague Dawley rats (400 ± 20 g) using acceleration-induced impact TBI [29, 93]. […] Blood pressure was monitored, both before and after injury, using a femoral arterial line. […]
Motor and cognitive outcomes in animals (n = 6 per group) were assessed using the rotarod and Barnes maze, respectively, as described in detail elsewhere. […] The rotational speed of the device was increased from 0 to 30 r.p.m. and the duration (in seconds) when the animals either completed the task, fell from the rods, or gripped the rods and spun for two consecutive revolutions rather than walking actively was recorded as the rotarod score. […]

T1 sequence (Q5DUB1 whole entry): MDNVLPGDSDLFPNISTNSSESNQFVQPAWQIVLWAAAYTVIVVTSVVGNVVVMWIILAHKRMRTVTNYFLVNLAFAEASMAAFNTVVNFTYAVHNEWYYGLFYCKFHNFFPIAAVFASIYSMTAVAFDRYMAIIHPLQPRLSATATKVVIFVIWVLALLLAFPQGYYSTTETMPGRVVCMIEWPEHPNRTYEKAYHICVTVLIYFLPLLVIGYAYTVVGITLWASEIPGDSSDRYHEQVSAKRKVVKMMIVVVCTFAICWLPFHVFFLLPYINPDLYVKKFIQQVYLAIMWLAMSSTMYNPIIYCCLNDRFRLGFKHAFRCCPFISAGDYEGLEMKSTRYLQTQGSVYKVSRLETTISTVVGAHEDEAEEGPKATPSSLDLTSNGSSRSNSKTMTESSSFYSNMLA

**Q.** What does the source list for `Cc1ccccc1-c1cc(N2CCN(C)CC2)ncc1C(=O)N(C)Cc1cc(C(F)(F)F)cc(C(F)(F)F)c1` [EUC-001, N-(3,5-Bis-trifluoromethyl-benzyl)-N-methyl-6-(4-methyl-piperazine-1-yl)-4-o-tolyl-nicotinamide]?
**A.** solubility (Aqueous solubility; free base): 500 µg/mL (≈ 908 µM); solubility (Aqueous solubility; hydrochloride salt): 1500 µg/mL; ED50 (central NK1Rs; iv administration, icv GR73632, read-out: IC50 dose, inhibition of foot-tapping response): 0.68 mg/kg; ED50 (central NK1Rs; oral administration (po), icv GR73632 3 pmol/5 µL, read-out: IC50 dose, inhibition of foot-tapping response): 0.89 mg/kg; Motor function, rotarod score (rodent model of TBI [1]): much smaller decline in motor function; Brain tissue water content (cerebral oedema) (rodent model of TBI [2]): not significantly different from sham; Cognitive function, Barnes maze time to locate escape tunnel (rodent model of TBI [3]): minimal impact on the performance time
